# Values joined by “and” are separate entries in the source; they are usually repeats but may differ in a detail not shown here. Equal entries are not always repeated.
# Tested on: amoxicillin-sensitive bacterial strain of Escherichia coli (ATCC 8739)
# Assay: Enzymatic test in agar medium (inhibition halos of disks with or without β-lactamase and cineole)
# Type: cell-based
# Protocol: This study is based on an enzymatic test first placing AMX combined with cineole in contact with ß-lactamases. The antibacterial activity of this antibiotic was then checked on an AMX-sensitive strain of Escherichia coli.
# An amoxicillin-sensitive bacterial strain of Escherichia coli (ATCC 8739) was supplied by the national hygiene institute (INH-Rabat).
# For each test performed, precultures of this E. coli strain of 24 h at 37° C. were prepared from this bacterial strain (frozen beforehand at −20° C.). From these precultures, bacterial inocula of 3.3×10^6 CFU/ml were prepared, adjusting the optical density to 540 nm.
# Disks charged with antibiotics (diameter Ø=6 mm) were used for the enzymatic test in agar medium (AMX: amoxicillin and AMC: amoxicillin+clavulanic acid). They were supplied by the national hygiene institute (INH-Rabat). The AMX used for the enzymatic test in liquid medium was supplied by Sigma Aldrich (France).
# The cineole was supplied by Sigma Aldrich (France). […]
# Starting with a 24 h sensitive preculture of E. coli, eighteen Petri dishes of the agar MH medium were inoculated by surface plating. […] 10 μl of β-lactamase at 0.03 U/ml and 10 μl of cineole at 0.002 μl/ml were added to the surface of each of these three disks. • After incubation of the eight Petri dishes for 18 h at 37° C., the diameters of the inhibition halos were measured.
SMILES,infra-inhibitory concentration (highest concentration without any inhibition) (microdilution method),"Diameters of the halos (disks AMX 20 μg, AMC 30 μg, β-lactamase 0.03 U/ml, cineole 0.002 μl/ml where added, 18 h at 37° C., 6 mm is the diameter of the disk, listed as AMX)"
"CC12CCC(CC1)C(C)(C)O2 [cineole, 1,8-cineole]",~0.002 μl/ml,
"CC1(C)S[C@@H]2[C@H](NC(=O)[C@H](N)c3ccc(O)cc3)C(=O)N2[C@H]1C(=O)O [amoxicillin, Amoxicillin]",,15 mm and 15 ± 1.0 mm
